One may read the inhibition as the change of the read-out against control, counted positive when it falls.

From US11083197B2, “Herbicidal composition comprising chromone derivatives and a method for weed control” (INVESTIGACIONES BIOLÓGICAS EN AGROQUÍMICOS ROSARIO S.A., priority 2015, dated 2021) come the findings set out here.

In experiment [1] the test system is creeping bentgrass (A. stolonifera). The experiment is described as follows: Germination bioassay with creeping bentgrass. It counts as in vivo, Agrostis stolonifera. The conditions noted are these: 1 mM; 24-well plates; rating scale of 0 to 5. As for the experimental part: (§1) DCM extract of flowers of A. visnaga (1.6 g) was divided in two 800 mg halves and each one was subjected to column chromatography using an Isolera One system (Biotage), equipped with UV detector (302 and 365 nm) and automatic fraction collector. Separation was performed by normal-phase chromatography column using a SNAP Cartridge KP-Sil (37×157 mm, 50 μm irregular silica, 100 g, Biotage) and a pre-packaged SNAP Samplet Cartridge KP-Sil (37×17 mm, Biotage). A full gradient of hexane:ethyl acetate was used for elution, from 100:0 to 0:100 over 3000 ml. Flow was 40 ml/min and 25 ml fractions were collected. Equal fractions were combined based on similarities on their TLC and chromatogram profiles providing nineteen fractions named I to XIX. All fractions were evaluated for their phytotoxicity on germination bioassay of lettuce (L. sativa) and creeping bentgrass (A. stolonifera).
(§2) A filter paper and 5 lettuce or 10 mg of creeping bentgrass seeds were placed in each well of a 24-well plate. Stock solutions (10×) of test compounds were prepared in acetone. 180 μl of distilled water were added to each well together with 20 μl of stock solution or acetone in solvent control. Final concentration of acetone was 10% v/v. Plates were sealed with Parafilm, and incubated at 26° C. in a growth chamber set at 173 μmol m^−2 s^−1 continuous photosynthetically active radiation. Phytotoxic activity was qualitatively evaluated by visually comparing germination in each well with solvent control at 7 days. A qualitative estimation of phytotoxicity was obtained by using a rating scale of 0 to 5, where 0 was no effect, and 5 was no germination of seeds. This procedure was also used for testing the phytotoxicity of pure compounds on ryegrass. On this experiment 12-well plates were used. 10 seeds were placed per well and final volume was 300 μl in each one. During dose-response bioassays used for IC50 determination, germination percentage and length of plants were measured at 7 days in order to determine the concentration required for 50% germination and growth inhibition (IC50). All experiments were done in triplicate.

The subject of the next experiment is lettuce (Lactuca sativa). Put plainly: Germination / dose-response bioassay with lettuce. Format: in vivo. The conditions noted are these: 1 mM; 24-well plates; rating scale of 0 to 5. As for the experimental part:
as §1, §2
Using method described in Example 1, compounds of Formula III and IV above were tested against lettuce and ryegrass.
The percentage of germination and length of plants were determined at 7 days. Data represents means of three replicates±SD. The IC50 values, for both germination and growth inhibition by compounds III and IV on lettuce and ryegrass, were obtained from estimated parameters in the regression curves.
Statistical Analysis. Data from dose-response experiments were analyzed by a log-logistic model^37-38 using the dose-response curve module^39 of R software version 2.2.1.^40 Concentrations required for 50% germination or growth inhibition relative to control (IC50 values) were obtained from estimated parameters in the regression curves. The standard error (SE) of each estimation is provided. Data from phytotoxicity bioassays in the laboratory and greenhouse, ROS and cell death quantifications were analyzed by ANOVA using the InfoStat statistical software version 2015,^41 and Scheffe's test was employed to compare the means at α=0.05.

A further experiment concerns ryegrass. The experiment is described as follows: Postemergence bioassay with ryegrass in Petri dishes. It counts as in vivo. The conditions noted are these: Lolium multiflorum, post-emergence, day 6 (4 days after application), read-out: Growth inhibition (%) as percentage of control. As for the experimental part: Plant length was measured at day 6 (4 days after application of the compounds)
Plant length's axis starts in 5 mm because seeds were pre-incubated in water, so all seedlings were around 5 mm long at the beginning of the treatment.

The next experiment has as its system lettuce. Put plainly: Postemergence bioassay with lettuce in Petri dishes. The conditions noted are these: Lactuca sativa, post-emergence, read-out: Average growth inhibition (%) as percentage of control. It counts as in vivo. As for the experimental part: Compounds of formula III and IV above were tested at different concentrations in a postemergence bioassay (in Petri dishes) against lettuce. Lettuce seeds were pre-incubated in Petri dishes with a filter paper and water for 2 days. After that, seedlings (15 mm approx.) were moved to a new Petri dish containing 4 mL of an aqueous solution of each compound or commercial herbicide. Plants length was measured at day 6 (4 days after postemergence application of the compounds). The results were compared to those obtained with acetochlor and glyphosate.
Plant length's axis starts in 15 mm because seeds were pre-incubated in water, so all seedlings were around 15 mm long at the beginning of the treatment.

Take `Cc1cc(=O)c2c(O)c3ccoc3c(O)c2o1` [4,9-dihydroxy-7-methyl-5H-furo[3,2-g]chromen-5-one]: the “Phytotoxicity at day 7, Creeping bentgrass” value in experiment [1] is on record as 1. The “Phytotoxicity at day 7, Lettuce” value with lettuce (Lactuca sativa) worked out at 3.
`COc1c2occc2c(OC)c2c(=O)cc(C(=O)O)oc12` [4,9-dimethoxy-5-oxo-5H-furo[3,2-g]chromen-7-carboxilic acid]: the “Phytotoxicity at day 7, Creeping bentgrass” value in experiment [1] is 3. Besides, the “Phytotoxicity at day 7, Lettuce” value in the experiment with lettuce (Lactuca sativa) was 3.
For the compound `COc1c2occc2c(O)c2c(=O)cc(C)oc12` [4-hydroxy-9-methoxy-7-methyl-5H-furo[3,2-g]chromen-5-one], in experiment [1], the “Phytotoxicity at day 7, Creeping bentgrass” value is recorded as 1. For the same compound, the “Phytotoxicity at day 7, Lettuce” value in the experiment on lettuce (Lactuca sativa) is on record as 2.
`CCOCN(C(=O)CCl)c1c(C)cccc1CC` [Acetochlor, reference compound]: the inhibition at 540 µM came out at 97% in the experiment on ryegrass (540 μM) and 60% in the experiment with lettuce (0.54 mM, day 6 (4 days after postemergence application)).
For the compound `O=c1ccoc2ccccc12` [Chromone, 1-benzopyran-4-one], the “Phytotoxicity at day 7, Creeping bentgrass” value in experiment [1] amounted to 4. For the same compound, the “Phytotoxicity at day 7, Lettuce” value in the experiment with lettuce (Lactuca sativa) was 3.
In the case of `O=C(O)CNCP(=O)(O)O` [Glyphosate, reference compound], the inhibition at 750 µM was 75% in the experiment on ryegrass (750 μM) and 45% in the experiment with lettuce.
In the case of `COc1c2ccoc2cc2oc(COC3OC(CO)C(O)C(O)C3O)cc(=O)c12` (centres unmarked) [Khelloside, Khellol-glucoside], the “Phytotoxicity at day 7, Creeping bentgrass” value in experiment [1] was 2. The “Phytotoxicity at day 7, Lettuce” value with lettuce (Lactuca sativa) is reported as 1.
